Test results as given in ChEMBL document CHEMBL1144534, “Molecular modeling of some 1H-benzimidazole derivatives with biological activity against Entamoeba histolytica: a comparative molecular field analysis study” (Bioorg Med Chem, 2007).

Test system: Entamoeba histolytica
Experiment: Antiamoebic activity against Entamoeba histolytica
Format: functional, organism-based

SMILES	IC50 [nM]
CSc1nc2ccccc2n1C	195
Cc1nc2cc(Cl)ccc2n1C	5.01
FC(F)(F)C(F)(F)c1nc2cc(Cl)c(Cl)cc2[nH]1	209
O=[N+]([O-])c1cc2nc(C(F)(F)F)[nH]c2cc1[N+](=O)[O-]	1350
FC(F)(F)C(F)(F)c1nc2c(Br)c(Br)c(Br)c(Br)c2[nH]1	214
Cn1c(S)nc2ccccc21	6.03
FC(F)(F)c1nc2c(Br)c(Br)c(Br)c(Br)c2[nH]1	302
Cn1c(S)nc2ccc(Cl)cc21	3800
CSc1nc2ccc(Cl)cc2n1C	575
Cc1nc2cc(Cl)c(Cl)cc2n1C	12.9
Cn1c(N)nc2ccc(Cl)cc21	245
Cn1c(N)nc2cc(Cl)c(Cl)cc21	37.2
Cn1c(S)nc2cc(Cl)c(Cl)cc21	129
Cc1nc2ccccc2n1C	61.7
FC(F)(F)c1nc2cc(Br)ccc2[nH]1	1320
FC(F)(F)c1nc2c(Br)cc(Br)cc2[nH]1	50.1
CSc1nc2cc(Cl)ccc2n1C	37.2
Cn1c(S)nc2cc(Cl)ccc21	10
Cc1nc2ccc(Cl)cc2n1C	204
CSc1nc2cc(Cl)c(Cl)cc2n1C	1050
FC(F)(F)c1nc2cc(Br)c(Br)cc2[nH]1	427
